The subject of this assay is Tomato (Solanum lycopersicum 'Rentita'). Description: Root growth test of tomatoes under oxygen deficiency conditions in the nutrient solution. The format is in vivo. The settings on record: 1.0 mg a.i./plant, floating box, nutrient solution not aerated (oxygen deficiency stress), average of maximum root length per plant. As for the experimental part: To prepare a suitable solution of the preparation, 1 part by weight of active substance is mixed with water to give the desired concentration.
Tomato seeds (Solanum lycopersicum ‘Rentita’) are grown in rock wool. After germination, the rock wool blocks are transferred into a floating box provided with the solution of the preparation and grown on under suitable climatic conditions.
The nutrient solution of the floating box was not aerated (oxygen deficiency stress).
After the desired period of time, the maximum length of the root per tomato plant is measured, and the average root length per floating box and treatment is calculated.

As to `CC(c1ccc(C(F)(F)F)nc1)S(C)(=O)=NC#N` (stereo not shown) [Compound (I-8)], the “Root growth of tomatoes: Length in cm after 4 d” value is 6.7 cm.
